Assay results published in US4988687A, “Cephalosporin derivatives, and antibacterial agents” (priority 1986, dated 1991).
Values after ≈ are worked out from the molar mass of the structure shown. Like-named read-outs stand apart in the source and are kept apart here.

Key:
S. aureus 209P NIHJ-JC1 = assay: agar plate dilution method, MIC against S. aureus 209P NIHJ-JC1; format: cell-based; settings: Staphylococcus aureus, read-out: Minimum Inhibitory Concentration (MIC)
Method: (§1) The in vitro antibacterial activities of the compounds of the present invention against various microorganisms, were measured by the following agar plate dilution method. One platinum loopfull of each test microorganism incubated overnight in Mueller Hinton broth, was inoculated to Mueller Hinton agar (inoculum size: 10^6 CFU/ml) Such culture media containing various antibiotics in various concentrations were prepared After incubation at 37° C. for 16 hours, the minimum inhibitory concentrations (MIC: μg/ml) were measured. As comparative compounds, cefotaxime, oeftazidime and the compounds disclosed in Example 2 of Japanese Unexamined Patent Publication No. 215690/1985 e.g. sodium 7-[2-(2-aminothiazol-4-yl)-2-ethoxyiminoacetamido]-3-(1-carboxylatemethylpyridinio-4-yl)thiomethyl-3-cephem-4-carboxylate (hereinafter referred to simply as "Reference Example A") were employed.

S. aureus JS1 = assay: agar plate dilution method, MIC against S. aureus JS1; format: cell-based; settings: Staphylococcus aureus, read-out: Minimum Inhibitory Concentration (MIC)
Method: as §1

S. aureus BB5703 = assay: agar plate dilution method, MIC against S. aureus BB5703; format: cell-based; settings: Staphylococcus aureus, BB5703, 16 h, read-out: Minimum Inhibitory Concentration (MIC)
Method: as §1

S. epidermidis IAM12012 = assay: agar plate dilution method, MIC against S. epidermidis IAM12012; format: cell-based; settings: Staphylococcus epidermidis, IAM12012, 16 h, read-out: Minimum Inhibitory Concentration (MIC)
Method: as §1

M. luteus ATCC9341 = assay: agar plate dilution method, MIC against M. luteus ATCC9341; format: cell-based; settings: Micrococcus luteus, read-out: Minimum Inhibitory Concentration (MIC)
Method: as §1

C. freundii GN346/16 = assay: agar plate dilution method, MIC against C. freundii GN346/16; format: cell-based; settings: Citrobacter freundii; C. freundii GN346/16; 10^6 CFU/ml, 37° C., 16 hours; read-out: Minimum Inhibitory Concentration (MIC)
Method: as §1

E. coli NIHJ JC2 = assay: agar plate dilution method, MIC against E. coli NIHJ JC2; format: cell-based; settings: Escherichia coli, NIHJJC2; E. coli NIHJ JC2; 10^6 CFU/ml, 37° C., 16 hours; read-out: Minimum Inhibitory Concentration (MIC)
Method: as §1

E. coli CSH2 (RK1) = assay: agar plate dilution method, MIC against E. coli CSH2 (RK1); format: cell-based; settings: Escherichia coli, 16 h, read-out: Minimum Inhibitory Concentration (MIC)
Method: as §1

K. pneumoniae PCI-602 = assay: agar plate dilution method, MIC against K. pneumoniae PCI-602; format: cell-based; settings: Klebsiella pneumoniae, PCI602, 16 h, read-out: Minimum Inhibitory Concentration (MIC)
Method: as §1

E. coli CSH(RE45) = assay: agar plate dilution method, MIC against E. coli CSH(RE45); format: cell-based; settings: Escherichia coli, 16 h, read-out: Minimum Inhibitory Concentration (MIC)
Method: as §1

K. oxytoca GN10650 = assay: agar plate dilution method, MIC against K. oxytoca GN10650; format: cell-based; settings: Klebsiella oxytoca, read-out: Minimum Inhibitory Concentration (MIC)
Method: as §1

K. pneumoniae No. 42 = assay: agar plate dilution method, MIC against K. pneumoniae No. 42; format: cell-based; settings: Klebsiella pneumoniae, read-out: Minimum Inhibitory Concentration (MIC)
Method: as §1

P. vulgaris HX-19 = assay: agar plate dilution method, MIC against P. vulgaris HX-19; format: cell-based; settings: Proteus vulgaris, read-out: Minimum Inhibitory Concentration (MIC)
Method: as §1

P. vulgaris No. 33 = assay: agar plate dilution method, MIC against P. vulgaris No. 33; format: cell-based; settings: Proteus vulgaris; P. vulgaris No. 33 (lactamase-producing strain); 10^6 CFU/ml, 37° C., 16 hours; read-out: Minimum Inhibitory Concentration (MIC)
Method: as §1

S. marcescens IAM 1184 = assay: agar plate dilution method, MIC against S. marcescens IAM 1184; format: cell-based; settings: Serratia marcescens, IAM1184; S. marcescens IAM 1184; 10^6 CFU/ml, 37° C., 16 hours; read-out: Minimum Inhibitory Concentration (MIC)
Method: as §1

C. freundii GN346 = assay: agar plate dilution method, MIC against C. freundii GN346; format: cell-based; settings: Citrobacter freundii; C. freundii GN346 (lactamase-producing strain); 10^6 CFU/ml, 37° C., 16 hours; read-out: Minimum Inhibitory Concentration (MIC)
Method: as §1

E. cloacae 963 = assay: agar plate dilution method, MIC against E. cloacae 963; format: cell-based; settings: Enterobacter cloacae; E. cloacae 963; 10^6 CFU/ml, 37° C., 16 hours; read-out: Minimum Inhibitory Concentration (MIC)
Method: as §1

E. cloacae Nek 39 = assay: agar plate dilution method, MIC against E. cloacae Nek 39; format: cell-based; settings: Enterobacter cloacae, NEK39; E. cloacae Nek 39 (lactamase-producing strain); 10^6 CFU/ml, 37° C., 16 hours; read-out: Minimum Inhibitory Concentration (MIC)
Method: as §1

E. coli GN5482 = assay: agar plate dilution method, MIC against E. coli GN5482; format: cell-based; settings: Escherichia coli; E. coli GN5482 (lactamase-producing strain); 10^6 CFU/ml, 37° C., 16 hours; read-out: Minimum Inhibitory Concentration (MIC)
Method: as §1

M. morganii GN5407 = assay: agar plate dilution method, MIC against M. morganii GN5407; format: cell-based; settings: Morganella morganii; M. morganii GN5407 (lactamase-producing strain); 10^6 CFU/ml, 37° C., 16 hours; read-out: Minimum Inhibitory Concentration (MIC)
Method: as §1

S. marcescens No. 16-2 = assay: agar plate dilution method, MIC against S. marcescens No. 16-2; format: cell-based; settings: Serratia marcescens, read-out: Minimum Inhibitory Concentration (MIC)
Method: as §1

Ps. aeruginosa IFO3445 = assay: agar plate dilution method, MIC against Ps. aeruginosa IFO3445; format: cell-based; settings: Pseudomonas aeruginosa; Ps. aeruginosa IFO3445; 10^6 CFU/ml, 37° C., 16 hours; read-out: Minimum Inhibitory Concentration (MIC)
Method: as §1

Ps. aeruginosa AK 109 = assay: agar plate dilution method, MIC against Ps. aeruginosa AK 109; format: cell-based; settings: Pseudomonas aeruginosa, AK109; Ps. aeruginosa AK 109; 10^6 CFU/ml, 37° C., 16 hours; read-out: Minimum Inhibitory Concentration (MIC)
Method: as §1

Ps. aeruginosa AKR17 = assay: agar plate dilution method, MIC against Ps. aeruginosa AKR17; format: cell-based; settings: Pseudomonas aeruginosa, AKR17, 16 h, read-out: Minimum Inhibitory Concentration (MIC)
Method: as §1

Ps. cepacia 23 = assay: agar plate dilution method, MIC against Ps. cepacia 23; format: cell-based, Pseudomonas cepacia; settings: Burkholderia cepacia, 23, 16 h, read-out: Minimum Inhibitory Concentration (MIC)
Method: as §1

Ps. maltophilia GN 12873 = assay: agar plate dilution method, MIC against Ps. maltophilia GN 12873; format: cell-based, Pseudomonas maltophilia; settings: Stenotrophomonas maltophilia, GN12873; Ps. maltophilia GN 12873 (lactamase-producing strain); 10^6 CFU/ml, 37° C., 16 hours; read-out: Minimum Inhibitory Concentration (MIC)
Method: as §1

A. calcoaceticus No. 4 = assay: agar plate dilution method, MIC against A. calcoaceticus No. 4; format: cell-based; settings: Acinetobacter calcoaceticus; A. calcoaceticus No. 4; 10^6 CFU/ml, 37° C., 16 hours; read-out: Minimum Inhibitory Concentration (MIC)
Method: as §1

[1] = tested on: sensitive and resistant Gram-positive bacteria and Gram-negative bacteria particularly glucose non-fermentative Gram-negative rods; assay: antibacterial activity and spectrum (in words); format: cell-based; settings: in vitro
Method: as §1

| SMILES | MIC (S. aureus BB5703) [µg/mL] | MIC (S. epidermidis IAM12012) [µg/mL] | MIC (C. freundii GN346/16) [µg/mL] | MIC (E. coli NIHJ JC2) [µg/mL] | MIC (E. coli CSH2 (RK1)) [µg/mL] | MIC (K. pneumoniae PCI-602) [µg/mL] | MIC (E. coli CSH(RE45)) [µg/mL] | MIC (P. vulgaris No. 33) [µg/mL] | MIC (S. marcescens IAM 1184) [µg/mL] | MIC (C. freundii GN346) [µg/mL] | MIC (E. cloacae 963) [µg/mL] | MIC (E. cloacae Nek 39) [µg/mL] | MIC (E. coli GN5482) [µg/mL] | MIC (M. morganii GN5407) [µg/mL] | MIC (Ps. aeruginosa IFO3445) [µg/mL] | MIC (Ps. aeruginosa AK 109) [µg/mL] | MIC (Ps. aeruginosa AKR17) [µg/mL] | MIC (Ps. cepacia 23) [µg/mL] | MIC (Ps. maltophilia GN 12873) [µg/mL] | MIC (A. calcoaceticus No. 4) [µg/mL] | also measured |
| --- | --- | --- | --- | --- | --- | --- | --- | --- | --- | --- | --- | --- | --- | --- | --- | --- | --- | --- | --- | --- | --- |
| Nc1nc(C(=NOC(C(=O)O)c2ccc(O)c(O)c2)C(=O)NC2C(=O)N3C(C(=O)[O-])=C(CSc4cc[n+](CC(=O)O)cc4)CSC23)cs1 (stereo not drawn) [Example 5, 7-[2-(2-aminothiazol-4-yl)-2-(α-carboxy-3,4-dihydroxybenzyloxyimino)acetamido]-3-(1-carboxymethylpyridinio-4-yl)thiomethyl-3-cephem-4-carboxylate (syn-isomer)] | 3.12 (≈ 4.35 µM) | 1.56 (≈ 2.18 µM) | 0.39 (≈ 0.544 µM) | 0.1 (≈ 0.14 µM) | 0.05 (≈ 0.0698 µM) | < 0.006 | 0.05 (≈ 0.0698 µM) | 0.05 (≈ 0.0698 µM) | 0.1 (≈ 0.14 µM) | 25 (≈ 34.9 µM) | 0.1 (≈ 0.14 µM) | 0.2 (≈ 0.279 µM) | 0.2 (≈ 0.279 µM) | 0.1 (≈ 0.14 µM) | 0.39 (≈ 0.544 µM) | 0.78 (≈ 1.09 µM) | 1.56 (≈ 2.18 µM) | < 0.006 | > 100 | 0.2 (≈ 0.279 µM) | MIC (S. aureus 209P NIHJ-JC1; S. aureus 209P NIHJ-JC1, 10^6 CFU/ml, Mueller Hinton agar, 37° C., 16 hours): 0.78 µg/mL (≈ 1.09 µM); MIC (S. aureus JS1; JS1, 16 h): 6.25 µg/mL (≈ 8.72 µM); MIC (M. luteus ATCC9341; M. luteus ATCC9341, 10^6 CFU/ml, 37° C., 16 hours): 0.78 µg/mL (≈ 1.09 µM); MIC (K. oxytoca GN10650; K. oxytoca GN10650 (lactamase-producing strain), 10^6 CFU/ml, 37° C., 16 hours): 0.05 µg/mL (≈ 0.0698 µM); MIC (K. pneumoniae No. 42; K. pneumoniae No. 42 (lactamase-producing strain), 10^6 CFU/ml, 37° C., 16 hours): 0.2 µg/mL (≈ 0.279 µM); MIC (P. vulgaris HX-19; HX19, 16 h): 0.025 µg/mL (≈ 0.0349 µM); MIC (S. marcescens No. 16-2; NO.162, S. marcescens No. 16-2 (lactamase-producing strain), 10^6 CFU/ml, 37° C., 16 hours): 0.78 µg/mL (≈ 1.09 µM); antibacterial activities and antibacterial spectrum (in words) [1]: excellent antibacterial activities and a broad antibacterial spectrum |
| CC(=O)Oc1ccc(C(O/N=C(\C(=O)NC2C(=O)N3C(C(=O)[O-])=C(CSc4cc[n+](CC(=O)O)cc4)CSC23)c2csc(N)n2)C(=O)O)cc1OC(C)=O (stereo not drawn) [Example 6, disodium 7-[2-(2-aminothiazol-4-yl)-2-(α-carboxylate-3,4-diacetoxybenzyloxyimino)acetamido]-3-(1-carboxylatemethylpyridinio-4-yl)thiomethyl-3-cephem-4-carboxylate (syn-isomer)] | 6.25 | 3.12 | 0.39 | 0.2 | 0.05 | < 0.006 | 0.05 | 0.1 | 0.2 | 25 | 0.39 | 0.78 | 0.39 | 0.2 | 0.78 | 0.78 | 1.56 | 0.025 | > 100 | 0.39 | MIC (S. aureus 209P NIHJ-JC1; 16 h): 1.56 µg/mL; MIC (S. aureus JS1; S. aureus JS1 (methicilline resistant; lactamase-producing strain), 10^6 CFU/ml, 37° C., 16 hours): 25 µg/mL; MIC (M. luteus ATCC9341; ATCC9341, 16 h): 3.12 µg/mL; MIC (K. oxytoca GN10650; GN10650, 16 h): 0.2 µg/mL; MIC (K. pneumoniae No. 42; NO.42, 16 h): 0.1 µg/mL; MIC (P. vulgaris HX-19; HX19, P. vulgaris HX-19, 10^6 CFU/ml, 37° C., 16 hours): 0.1 µg/mL; MIC (S. marcescens No. 16-2; NO.162, 16 h): 1.56 µg/mL; antibacterial activities and antibacterial spectrum (in words) [1]: excellent antibacterial activities and a broad antibacterial spectrum |
